ChEMBL document CHEMBL3588800, “Novel Bioactive Hybrid Compound Dual Targeting Estrogen Receptor and Histone Deacetylase for the Treatment of Breast Cancer” (J Med Chem, 2015)

What was measured:
MCF7 = experiment: cells; assay type: functional, cell-based; settings: Homo sapiens, MCF7, 72 h
DU-145 = experiment: cells; assay type: functional, cell-based; settings: Homo sapiens, DU-145, 72 h
Estrogen receptor beta [1] = biological target: T1, Estrogen receptor beta (Homo sapiens, UniProt Q92731); experiment: Antagonist activity at ER-beta (unknown origin) transfected in HEK293T cells assessed as inhibition of transcriptional activity after 24 hrs by luciferase reporter gene assay relative to 17-beta estradiol; assay type: cell-based; settings: HEK-293T
T1 sequence (Q92731 whole entry): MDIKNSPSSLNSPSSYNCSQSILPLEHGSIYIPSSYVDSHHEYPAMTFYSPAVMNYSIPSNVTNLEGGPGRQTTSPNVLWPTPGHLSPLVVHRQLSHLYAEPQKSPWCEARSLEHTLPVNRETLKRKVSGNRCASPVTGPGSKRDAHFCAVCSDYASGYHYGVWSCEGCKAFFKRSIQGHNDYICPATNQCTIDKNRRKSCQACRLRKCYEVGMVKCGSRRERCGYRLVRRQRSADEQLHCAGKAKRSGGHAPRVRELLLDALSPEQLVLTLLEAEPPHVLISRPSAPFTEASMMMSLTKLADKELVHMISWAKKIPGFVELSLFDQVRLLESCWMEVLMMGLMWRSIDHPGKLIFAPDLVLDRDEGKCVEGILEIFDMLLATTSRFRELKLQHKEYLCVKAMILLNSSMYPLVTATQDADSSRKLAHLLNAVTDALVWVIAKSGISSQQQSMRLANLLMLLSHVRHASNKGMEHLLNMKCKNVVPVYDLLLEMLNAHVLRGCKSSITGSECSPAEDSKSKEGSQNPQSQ

Estrogen receptor [2] = biological target: T2, Estrogen receptor (Homo sapiens, UniProt P03372); experiment: Agonist activity at ER-alpha (unknown origin) transfected in HEK293T cells assessed as stimulation of transcriptional activity after 24 hrs by luciferase reporter gene assay; assay type: cell-based, HEK-293T
T2 sequence (P03372 whole entry): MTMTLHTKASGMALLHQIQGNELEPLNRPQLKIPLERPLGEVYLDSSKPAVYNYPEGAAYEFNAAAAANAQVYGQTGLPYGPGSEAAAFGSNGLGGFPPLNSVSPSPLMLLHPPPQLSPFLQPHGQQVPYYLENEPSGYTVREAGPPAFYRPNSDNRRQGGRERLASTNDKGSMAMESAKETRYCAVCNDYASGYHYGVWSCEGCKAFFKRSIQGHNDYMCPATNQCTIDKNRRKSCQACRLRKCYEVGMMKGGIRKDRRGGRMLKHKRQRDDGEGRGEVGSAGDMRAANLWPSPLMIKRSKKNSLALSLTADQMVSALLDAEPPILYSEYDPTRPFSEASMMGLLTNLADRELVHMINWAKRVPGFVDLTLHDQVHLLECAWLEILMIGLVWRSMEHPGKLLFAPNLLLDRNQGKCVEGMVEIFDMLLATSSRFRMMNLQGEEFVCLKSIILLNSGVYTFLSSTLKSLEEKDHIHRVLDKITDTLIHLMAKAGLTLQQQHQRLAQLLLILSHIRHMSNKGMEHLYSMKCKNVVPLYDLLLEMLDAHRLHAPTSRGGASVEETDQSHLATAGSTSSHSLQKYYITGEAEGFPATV

[3] = biological target: T3, Estrogen receptor (Homo sapiens) (UniProt P03372); experiment: Agonist activity at ER-alpha (unknown origin) transfected in HEK293T cells assessed as stimulation of transcriptional activity after 24 hrs by luciferase reporter gene assay relative to 17-beta estradiol; assay type: cell-based; settings: HEK-293T
T3 sequence (whole entry): T2 sequence (P03372 whole entry)

Estrogen receptor beta [4] = biological target: T1, Estrogen receptor beta; experiment: Agonist activity at ER-beta (unknown origin) transfected in HEK293T cells assessed as stimulation of transcriptional activity after 24 hrs by luciferase reporter gene assay relative to 17-beta estradiol; assay type: cell-based; settings: HEK-293T
[5] = biological target: T3, Estrogen receptor (Homo sapiens); experiment: Antagonist activity at ER-alpha (unknown origin) transfected in HEK293T cells assessed as inhibition of transcriptional activity after 24 hrs by luciferase reporter gene assay relative to 17-beta estradiol; assay type: cell-based; settings: HEK-293T
Vero = experiment: cells; assay type: ADME, cell-based; settings: Chlorocebus sabaeus, 72 h
Estrogen receptor [6] = biological target: T2, Estrogen receptor; experiment: Antagonist activity at ER-alpha (unknown origin) transfected in HEK293T cells assessed as inhibition of transcriptional activity after 24 hrs by luciferase reporter gene assay; assay type: cell-based, HEK-293T
Histone deacetylase 1 = Histone deacetylase 1 (Homo sapiens, UniProt Q13547); experiment: Inhibition of human recombinant HDAC1 after 15 mins by fluorogenic assay
Chain of Histone deacetylase 1 (Q13547 whole entry): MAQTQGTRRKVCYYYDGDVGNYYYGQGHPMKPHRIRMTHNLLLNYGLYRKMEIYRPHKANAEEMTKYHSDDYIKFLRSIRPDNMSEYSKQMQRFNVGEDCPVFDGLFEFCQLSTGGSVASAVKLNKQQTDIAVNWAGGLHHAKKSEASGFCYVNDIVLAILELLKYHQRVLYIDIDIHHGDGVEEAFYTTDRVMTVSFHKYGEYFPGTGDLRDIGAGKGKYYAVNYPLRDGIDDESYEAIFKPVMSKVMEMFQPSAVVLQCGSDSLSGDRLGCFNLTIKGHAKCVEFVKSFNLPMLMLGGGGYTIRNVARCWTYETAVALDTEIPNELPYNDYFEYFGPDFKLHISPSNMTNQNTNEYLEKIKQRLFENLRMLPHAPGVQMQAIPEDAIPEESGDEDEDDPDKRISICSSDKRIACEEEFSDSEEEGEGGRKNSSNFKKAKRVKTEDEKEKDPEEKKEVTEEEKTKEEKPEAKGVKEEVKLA

[7] = biological target: T4, Protein deacetylase HDAC6 (Homo sapiens, UniProt Q9UBN7); experiment: Inhibition of human recombinant HDAC6 after 15 mins by fluorogenic assay
T4 sequence (Q9UBN7 whole entry): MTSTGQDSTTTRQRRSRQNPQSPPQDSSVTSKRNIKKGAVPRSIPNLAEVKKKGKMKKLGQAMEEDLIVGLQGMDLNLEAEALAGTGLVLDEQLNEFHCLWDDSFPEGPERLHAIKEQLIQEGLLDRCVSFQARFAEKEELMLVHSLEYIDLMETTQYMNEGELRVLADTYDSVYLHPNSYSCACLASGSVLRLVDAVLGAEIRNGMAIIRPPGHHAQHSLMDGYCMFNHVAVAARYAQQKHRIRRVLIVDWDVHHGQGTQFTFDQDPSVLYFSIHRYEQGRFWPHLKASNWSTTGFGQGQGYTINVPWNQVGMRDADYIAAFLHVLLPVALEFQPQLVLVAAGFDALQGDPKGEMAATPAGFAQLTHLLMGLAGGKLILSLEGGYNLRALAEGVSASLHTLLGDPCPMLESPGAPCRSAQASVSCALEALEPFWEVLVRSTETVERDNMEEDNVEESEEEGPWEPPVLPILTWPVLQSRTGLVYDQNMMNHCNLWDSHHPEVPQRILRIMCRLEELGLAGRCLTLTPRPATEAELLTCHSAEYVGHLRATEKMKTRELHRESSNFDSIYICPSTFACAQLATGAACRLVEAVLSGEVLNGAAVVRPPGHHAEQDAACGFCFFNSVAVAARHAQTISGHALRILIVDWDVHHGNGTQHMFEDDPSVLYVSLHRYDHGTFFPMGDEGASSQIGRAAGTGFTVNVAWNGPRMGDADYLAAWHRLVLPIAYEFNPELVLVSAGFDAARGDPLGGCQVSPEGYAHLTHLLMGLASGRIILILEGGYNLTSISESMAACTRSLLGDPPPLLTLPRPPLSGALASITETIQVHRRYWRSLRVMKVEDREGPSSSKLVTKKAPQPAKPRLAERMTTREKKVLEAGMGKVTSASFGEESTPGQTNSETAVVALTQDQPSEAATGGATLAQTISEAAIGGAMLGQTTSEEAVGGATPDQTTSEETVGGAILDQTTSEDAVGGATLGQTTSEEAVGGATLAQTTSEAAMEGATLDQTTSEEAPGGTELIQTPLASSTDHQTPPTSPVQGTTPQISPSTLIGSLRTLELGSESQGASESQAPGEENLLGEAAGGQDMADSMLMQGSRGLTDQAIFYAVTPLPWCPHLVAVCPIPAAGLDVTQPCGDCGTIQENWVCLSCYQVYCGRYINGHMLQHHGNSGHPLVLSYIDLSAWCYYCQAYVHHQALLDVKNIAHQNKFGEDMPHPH

Estrogen receptor beta [8] = biological target: T1, Estrogen receptor beta; experiment: Agonist activity at ER-beta (unknown origin) transfected in HEK293T cells assessed as stimulation of transcriptional activity after 24 hrs by luciferase reporter gene assay; assay type: cell-based, HEK-293T
Estrogen receptor [9] = biological target: T2, Estrogen receptor; experiment: Binding affinity to human ER-alpha ligand binding domain after 2 hrs by competitive fluorometric binding assay
Estrogen receptor beta [10] = biological target: T1, Estrogen receptor beta; experiment: Binding affinity to human ER-beta ligand binding domain after 2 hrs by competitive fluorometric binding assay

| SMILES | IC50 (MCF7) [µM] | IC50 (DU-145) [µM] | Efficacy (Estrogen receptor beta [1]) [%] | EC50 (Estrogen receptor [2]) [µM] | Efficacy [3] [%] | Efficacy (Estrogen receptor beta [4]) [%] | Efficacy [5] [%] | IC50 (Estrogen receptor [6]) [µM] | IC50 (Histone deacetylase 1) | IC50 ([7]; read-out: IC50) [µM] | IC50 [7] | EC50 (Estrogen receptor beta [8]) [µM] | Ki (Estrogen receptor [9]) [µM] | Ki (Estrogen receptor beta [10]) [µM] | IC50 (Histone deacetylase 1; read-out: IC50) [µM] | IC50 (Vero) [µM] |
| --- | --- | --- | --- | --- | --- | --- | --- | --- | --- | --- | --- | --- | --- | --- | --- | --- |
| COC(=O)CCCCCCC(=O)Nc1cccc(OS(=O)(=O)C2CC3OC2C(c2ccc(O)cc2)=C3c2ccc(O)cc2)c1 (configuration not stated) | 19.1 | 19.3 | 91 | 0.001 | 16 | 3 | 111 | – | – | – | – | – | – | – | – | > 100 |
| O=C(O)CCCCCCC(=O)Nc1ccc(C2=C(c3ccc(O)cc3)C3CC(S(=O)(=O)Oc4ccc(C(F)(F)F)cc4)C2O3)cc1 (racemic) | 24 | 77 | 136 | – | -51 | -12 | 10 | 0.79 | Not Active | 0.648 | – | – | – | – | – | > 100 |
| O=S(=O)(Oc1ccccc1)[C@H]1C[C@H]2O[C@@H]1C(c1ccc(O)cc1)=C2c1ccc(O)cc1 (relative stereo) | 20.9 | > 100 | – | – | – | – | – | – | Not Active | – | Not Active | – | – | – | – | > 100 |
| O=C(O)CCCCCCC(=O)Nc1ccc(C2=C(c3ccc(O)cc3)C3CC(S(=O)(=O)Oc4ccccc4)C2O3)cc1 (racemic) | 66.4 | > 100 | 97 | – | -13 | 36 | 36 | 1.21 | – | – | – | 0.93 | 0.112 | 0.654 | – | > 100 |
| Cc1ccc(OS(=O)(=O)C2CC3OC2C(c2ccc(NC(=O)CCCCCCC(=O)O)cc2)=C3c2ccc(O)cc2)cc1 (racemic) | 60.5 | 80.8 | 111 | – | -6 | 8 | 36 | 1.08 | – | – | – | 0.52 | – | 0.0873 | – | > 100 |
| O=C(O)CCCCCCC(=O)Nc1ccc(C2=C(c3ccc(O)cc3)C3CC(S(=O)(=O)Oc4ccccc4C(F)(F)F)C2O3)cc1 (racemic) | 26.1 | > 100 | 102 | – | 9 | 10 | 37 | 0.64 | – | – | – | – | 3.87 | – | – | > 100 |
| O=C(O)CCCCCCC(=O)Nc1ccc(C2=C(c3ccc(O)cc3)C3CC(S(=O)(=O)Oc4ccccc4O)C2O3)cc1 (racemic) | 27.9 | 27.7 | 87 | – | 12 | 37 | 24 | 0.14 | – | – | – | – | – | – | – | > 100 |
| Cc1cccc(C)c1OS(=O)(=O)C1CC2OC1C(c1ccc(NC(=O)CCCCCCC(=O)O)cc1)=C2c1ccc(O)cc1 (racemic) | > 100 | > 100 | 87 | 0.32 | 61 | -8 | 127 | – | – | – | – | – | > 5 | 0.971 | – | > 100 |

The remaining compounds from weak to strong by IC50 (MCF7), led by results:

| IC50 (MCF7) [µM] | IC50 (DU-145) [µM] | Efficacy (Estrogen receptor beta [1]) [%] | EC50 (Estrogen receptor [2]) [µM] | Efficacy [3] [%] | Efficacy (Estrogen receptor beta [4]) [%] | Efficacy [5] [%] | IC50 (Estrogen receptor [6]) [µM] | IC50 (Histone deacetylase 1) | IC50 ([7]; read-out: IC50) [µM] | IC50 [7] | EC50 (Estrogen receptor beta [8]) [µM] | Ki (Estrogen receptor [9]) [µM] | Ki (Estrogen receptor beta [10]) [µM] | IC50 (Histone deacetylase 1; read-out: IC50) [µM] | SMILES | IC50 (Vero) [µM] |
| --- | --- | --- | --- | --- | --- | --- | --- | --- | --- | --- | --- | --- | --- | --- | --- | --- |
| 18.9 | 58.3 | 94 | – | -21 | 19 | 45 | 0.92 | – | 8.11 | – | 0.53 | – | – | 0.282 | O=C(O)CCCCCCC(=O)Nc1ccc(C2=C(c3ccc(O)cc3)C3CC(S(=O)(=O)Oc4ccc5ccccc5c4)C2O3)cc1 (configuration not stated) | > 100 |
| 17.1 | 11.3 | 91 | 1.14 | 33 | 21 | 101 | – | Not Active | 0.23 | – | 0.173 | > 5 | – | – | O=C(CCCCCCC(=O)Nc1ccc(C2=C(c3ccc(O)cc3)C3CC(S(=O)(=O)Oc4ccc(Br)cc4)C2O3)cc1)NO (racemic) | > 100 |
| 15.3 | 38.6 | 137 | – | 27 | 5 | 40 | 116 | Not Active | 4.17 | – | – | – | – | – | COc1ccc(OS(=O)(=O)C2CC3OC2C(c2ccc(NC(=O)CCCCCCC(=O)O)cc2)=C3c2ccc(O)cc2)cc1 (racemic) | > 100 |
| 13.4 | 8.57 | 94 | – | -22 | 36 | 88 | – | Not Active | 0.03 | – | – | > 5 | – | – | O=C(CCCCCCC(=O)Nc1ccc(C2=C(c3ccc(O)cc3)C3CC(S(=O)(=O)Oc4cccc5ccccc45)C2O3)cc1)NO (racemic) | > 100 |
| 7.9 | > 100 | 117 | – | -3 | 24 | 43 | 0.46 | – | 5.01 | – | 0.38 | – | – | 0.022 | Cc1ccccc1OS(=O)(=O)C1CC2OC1C(c1ccc(NC(=O)CCCCCCC(=O)O)cc1)=C2c1ccc(O)cc1 (racemic) | > 100 |
| 4.7 | 48.6 | 15 | – | 5 | -13 | 14 | – | Not Active | – | Not Active | – | – | – | – | O=C(O)CCCCCCC(=O)Nc1ccc(C2=C(c3ccc(O)cc3)C3CC(S(=O)(=O)Oc4cccc5ccccc45)C2O3)cc1 (configuration not stated) | – |
| 3.8 | 52.4 | 87 | – | -28 | -11 | 43 | – | – | – | Not Active | – | – | – | 2.98 | Cc1cccc(OS(=O)(=O)C2CC3OC2C(c2ccc(NC(=O)CCCCCCC(=O)O)cc2)=C3c2ccc(O)cc2)c1 (racemic) | – |
| 3.6 | 23.8 | 120 | 3.69 | 77 | 105 | 108 | – | Not Active | 0.071 | – | 8.1 | – | – | – | O=C(O)CCCCCCC(=O)Nc1ccc(C2=C(c3ccc(O)cc3)C3CC(S(=O)(=O)Oc4cccc(O)c4)C2O3)cc1 (racemic) | > 100 |
